Test results published in US9186344B2, “Glycogen or polysaccharide storage disease treatment method” (Baylor Research Institute, priority 2004, dated 2015).

Legend:
[1] = test system: FOD patients (CPT I, CACT, CPT II, VLCAD, TFP, LCHAD, SCAD deficiency); assay: Odd chain fatty acid (triheptanoin) diet in patients with mitochondrial fat oxidation defects (FOD); type: in vivo, human; conditions: for Patient mortality / Patient mortality (deaths/patients): C7 Diet
Excerpt: Other examples of FODs that derive from errors in metabolism include: Carnitine Palmitoyl Transferase I (CPT I) deficiency, Carnitine-Acylcarnitine Translocase (CACT) deficiency, Carnitine Palmitoyl Transferase […] deficiency, very long chain acyl-CoA dehydrogenase (VLCAD) deficiency, Trifunctional Protein (TFP) deficiency, long chain acyl 3-hydroxy CoA dehydrogenase (LCHAD) and short chain acyl CoA dehydrogenase (SCAD) deficiency. Patients having each of these diseases were located and placed on an odd chain fatty acid diet, with informed consent and following under IRB.
The odd chain fatty acid diet and therapy of the present invention was compared to conventional treatments, which include: (1) a low fat, high carbohydrate diet; avoid fasting; frequent or continuous feeding and night time corn starch; or (2) a medium chain triglyceride (MCT oil) for long chain disorders; or (3) insulin and glucose to inhibit lipolysis. However, current treatments fail to treat the hypoglycemia and hepatomegaly (which often persist), the frequency and severity of Rhabdomyolysis; muscle weakness and fatigue are not improved and heart function often remains abnormal. Biochemically, the failure of existing therapies leave patients with impaired Acetyl-CoA production and ketogenesis, there remains an increase Acyl-CoA:CoA (mitochondrion) ratio during illness, a decreased NADH:NAD ratio during illness (mitochondrion), hypoglycemia and hyperammonemia.
Table 4 summarized a comparison of patent mortality for patients with FOD of conventional treatment (based on the literature, see *Neonatal onset; Conventional Diet Rx: JIMD 22: 488,1999), and the odd chain fatty acids of the present invention. There is a demonstrable increase in patient survival across a number of FODs.

GSDII patient [2] = assay: Urinary organic acids, blood acylcarnitines and plasma amino acids, Example 2 patient; type: in vivo, human; conditions: thirteen hours after initiating the C7 diet
Procedure: (§1) Organic Acids may be measured as follows. Organic acids in urine specimens are determined with isolation by Liquid Partition Chromatography (LPC) and quantitative Gas Chromatography-Mass Spectrometry (GCMS) using an internal standard. The specimen is derivatized to form pentafluorobenzyl oximes (PFBO) of oxo-acids and the organic acids isolated by Liquid Partition chromatography on silicic acid hydrated with dilute sulfuric acid and eluted with mixtures of tert-Amyl alcohol and chloroform. After drying, the organic acids are derivatized to form volatile trimethylsilyl (TMS) derivatives for separation by capillary Gas Chromatography (GC) with temperature programming. Detection is by Mass Spectrometry (MS) with identification of the organic acids by their mass spectra. Organic acids are quantified by peak areas of reconstructed ion chromatograms with internal standards and calibration curves.
Acylcarnitine Profiles. Acylcarnitines and carnitine levels in dried blood spots (dbs), plasma and amniotic fluid by automated electrospray tandem mass spectrometry Acylcarnitines are extracted from blood spots, plasmas and amniotic fluid with methanol containing stable isotopically labeled internal standards. The extract is derivatized to form butyl esters. An automated sample introduction system delivers the samples to the electrospray tandem mass spectrometer (ESI-MS/MS) operating in the multiple channel analysis mode in which acylcarnitines are identified, profiled, and quantified with stable isotopically labeled internal standards. This test also provides quantification of free, sum of acylcarnitines, and total carnitine levels.
Citrate supplementation was continued throughout the treatment.

GSDII patient [3] = assay: Clinical course on triheptanoin diet, Example 2 patient; type: in vivo, human
Excerpt: Clinical Course. Following informed consent, the patient agreed to enter an approved IRB Protocol for dietary therapy with triheptanoin oil. […] Maximal inspiratory and expiratory pressures were 60 cm of water. […] And pO2=62.
The oral diet consisted of 2900 Kcal on admission. […] Total caloric intake was maintained at ˜2800 per day during his 30 day admission.
Initially, the patient required assistance and supervision with grooming, upper and lower extremity dressing, bathing, and toileting. The patient also required maximal assistance with ambulation and transfers from bed to wheelchair. […] They continued to require supervision, but without assistance, with transfers from bed to wheelchair and to toilet and shower. They had clearly made improvements in strength and endurance with exercise.

[4] = test system: polysaccharide storage myopathy (PSSM); assay: Treatment of horses with polysaccharide storage myopathy with triheptanoin diet; type: in vivo, horse
Procedure: Treatment of Horses. […] The first was an 8 year old mare who was unable to walk or exercise without severe muscle pain, rhabdomyolysis, and “locking up.” The owners were approaching “putting the animal down” (killing it). […] A second horse was encountered at 4 months with proven polysaccharide storage myopathy (PSSM) that was not able to walk adequately or nurse from its mother. The owners were prepared to kill the animal but decided to try the triheptanoin diet first. […] A third horse, also an 8 year old mare, developed PSSM and “locked up.” She was no longer available to ride and could no longer jump.

[5] = test system: adult-onset GSD II patient; assay: Urinary organic acids / blood acylcarnitines, Example 1 patient; type: in vivo, human; conditions: C7 increased from 26 to 40% of total caloric intake (1.0 to 2.0 gm/Kg/day)
Procedure: as §1
Acylcarnitine Profiles. […] An automated sample introduction system delivers the samples to the electrospray tandem mass spectrometer (ESI-MS/MS) operating in the multiple channel analysis mode in which acylcarnitines are identified, profiled, and quantified with stable isotopically labeled internal standards. This test also provides quantification of free, sum of acylcarnitines, and total carnitine levels. […]

[6] = dietary triheptanoin supplementation, FOD patients

CCCCCCC(=O)OCC(COC(=O)CCCCCC)OC(=O)CCCCCC [C7, triheptanoin]
Patient mortality ([1]; CACT, neonatal onset): 100%
Patient mortality (deaths/patients) ([1]; CACT, neonatal onset): 1/1
retinopathy (Choroideremia) ([1]; LCHAD patients): unchanged
Patient mortality ([1]; LCHAD): 0%
Patient mortality (deaths/patients) ([1]; LCHAD): 0/9
peripheral neuropathy ([1]; TFP patients): unchanged
Patient mortality ([1]; TFP): 0%
Patient mortality (deaths/patients) ([1]; TFP): 1/5
Patient mortality ([1]; VLCAD): 5%
Patient mortality (deaths/patients) ([1]; VLCAD): 1/19
Rhabdomyolysis [1, 6]: marked attenuation of Rhabdomyolysis
cardiomyopathies [1, 6]: cardiomyopathies were resolved
glucose homeostasis [1, 6]: normal glucose homeostasis was observed
hepatomegaly [1, 6]: elimination of hepatomegaly
mortality [1, 6]: reduced mortality
muscle strength and endurance [1, 6]: improved muscle strength and endurance
CPK (creatine kinase) levels ([1]; long-chain defects, FIG. 9): rapidly suppresses CPK levels
increase of plasma BCAA's (GSDII patient [2]): ~2 fold
increase of plasma Glutamine (GSDII patient [2]): ~2 fold
increase of plasma alanine level (GSDII patient [2]): 4 fold
increase in total vital capacity (GSDII patient [3]; at discharge compared to admission, diet plus physical therapy): 700 mL
functional status at discharge (GSDII patient [3]; intensive physical therapy and diet, 30 day admission): independent with grooming, upper and lower extremity dressing, toileting, and locomotion with a manual wheelchair
time to become asymptomatic ([4]; first horse, 8 year old mare, triheptanoin in feed pellets): ≤ 30 days
blood enzyme levels related to muscle disease (including serum creatine phosphokinase) ([4]; second horse, 4 month foal): had normalized
time to running and playing without muscle pain ([4]; second horse, 4 month foal): ≤ 24 h
symptoms after adjustment of the dose for weight gain ([4]; second horse, dose back to 2 grams/Kg body weight): eliminated all symptoms
clinical status ([4]; third horse, 8 year old mare, 1.0 gm/Kg/day, one week of diet treatment): asymptomatic with normal blood chemistry levels
propionyl overload from the metabolism of heptanoate [5]: without any evidence for propionyl overload
